Experimental data published in PubChem BioAssay (NCI).
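Where inhibition never reached the appropriate level, the endpoint shown equals the highest concentration tested. Otherwise, values were interpolated linearly from a five-concentration, 48-hour dose response in 96-well plates. The concentration for full growth arrest is given as TGI.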

Legend:
Experiment in all cases: DTP human tumour cell line panel, 48 h
SW-620 colon = tested on: SW-620 colon
UACC-62 melanoma = tested on: UACC-62 melanoma
EKVX NSCLC = tested on: EKVX NSCLC
ACHN renal = tested on: ACHN renal
HOP-92 NSCLC = tested on: HOP-92 NSCLC
HL-60(TB) leukemia = tested on: HL-60(TB) leukemia
OVCAR-3 ovarian = tested on: OVCAR-3 ovarian
RPMI-8226 leukemia = tested on: RPMI-8226 leukemia
MDA-MB-231 breast = tested on: MDA-MB-231 breast
T-47D breast = tested on: T-47D breast
NCI-H460 lung = tested on: NCI-H460 lung
A498 renal = tested on: A498 renal

SMILES: N#CSc1nc[nH]c1C(N)=O
- TGI (SW-620 colon): > 100 µM
- TGI (UACC-62 melanoma): > 100 µM
- TGI (EKVX NSCLC): > 100 µM
- TGI (ACHN renal): > 100 µM
- TGI (HOP-92 NSCLC): > 100 µM
- TGI (HL-60(TB) leukemia): 6.86 µM
- TGI (OVCAR-3 ovarian): > 100 µM
- TGI (RPMI-8226 leukemia): 44.7 µM
- TGI (MDA-MB-231 breast): > 100 µM
- TGI (T-47D breast): > 100 µM
- TGI (NCI-H460 lung): > 100 µM
- TGI (A498 renal): > 100 µM

SMILES: Cc1cc(C)cc(C(=N)c2ccccc2Cc2cccc3ccccc23)c1
- TGI (SW-620 colon): 31.8 µM
- TGI (UACC-62 melanoma): 29 µM
- TGI (EKVX NSCLC): 46.4 µM
- TGI (ACHN renal): 31.2 µM
- TGI (HOP-92 NSCLC): 29 µM
- TGI (HL-60(TB) leukemia): 33.5 µM
- TGI (OVCAR-3 ovarian): 32.9 µM
- TGI (RPMI-8226 leukemia): 67 µM
- TGI (MDA-MB-231 breast): > 100 µM
- TGI (T-47D breast): 46.3 µM
- TGI (NCI-H460 lung): 29.5 µM
- TGI (A498 renal): 87.3 µM
